PMC8286823, “Identifying SARS-CoV-2 antiviral compounds by screening for small molecule inhibitors of nsp15 endoribonuclease” (Biochemical Journal, 2021)
Values joined by “and” are separate entries in the source; they are usually repeats but may differ in a detail not shown here. Equal entries are not always repeated. Structures can show the parent of a compound that is named as a salt.

Assays:
[1] = target: T1, SARS-CoV-2 nsp15 endoribonuclease (Severe acute respiratory syndrome coronavirus 2, UniProt P0DTD1); format: biochemical; conditions: 100 µM compound, 500 nM nsp15, 1 µM 16 nt U substrate; for mean cleavage (%): 20 min at 30°C, n=3
[2] = target: T1, SARS-CoV-2 nsp15 endoribonuclease; test: biochemical; format: biochemical
[3] = target: T1, SARS-CoV-2 nsp15 endoribonuclease
[4] = target: T2, Pierce Universal Nuclease (benzonase) (Serratia marcescens, UniProt P13717); test: Gel-based nuclease specificity assay with 16 nt U substrate, benzonase; format: biochemical; conditions: 0, 11, 33 or 100 µM; 25 mU/µl Pierce Universal Nuclease, 1 µM 16 nt U substrate
T2 construct: purchased Pierce

VERO E6 cells = test: Cell survival (cell area, DRAQ5) in SARS-CoV-2 infectivity assay; format: cell-based, Chlorocebus sabaeus; conditions: infected VERO E6 cells, 22 h
Experimental: (§1) We infected VERO E6 cells with SARS-CoV-2 in the presence of a range of concentrations of NSC95397 and quantified viral infected area (Figure 5A,B). NSC95397 sacrificed VERO E6 cells at concentrations above 10 μM, consistent with previous reports that NSC95397 is an inhibitor of the Cdc25 protein phosphatase and multiple protein kinases [[39–42]]. This made it more difficult to assess viral growth. With the aim of finding a concentration of NSC95397 that inhibited viral growth without killing the cells, we performed a second titration at lower NSC95397 concentrations (Figure 5C,D).
(§2) Figure 5. […] (A) SARS-CoV-2 infectivity assays in the presence of NSC95397. DNA in cells was stained with DRAQ5, and virus was immunostained with anti-N antibody. (B) Quantification of normalised viral area (black) and cell area (gray) ±SD. […] (D) Quantification of C as in B. (E) SARS-CoV-2 infectivity assays as in C in the presence of 0.5 µM remdesivir. (F) Quantification of E as in B, note that black control line is quantification of control experiment in C.
(§3) Infectivity assays were performed as in the accompanying manuscript (see Zeng et al.). […] The whole well area was delineated, and area of Alexa488/N protein and DRAQ5/DNA signals were determined for each well. […]

RNase A = RNase A (Bos taurus, UniProt P61823); test: Gel-based nuclease specificity assay with 16 nt U substrate, RNase A; format: biochemical; conditions: 0, 11, 33 or 100 µM; 1 pg/µl RNase A, 1 µM 16 nt U substrate
SARS-CoV-2 = SARS-CoV-2 infectivity assay in VERO E6 cells (viral area, anti-N staining); format: cell-based
Experimental: as §1, §2, §3

RNase A, sequence (P61823 27-150): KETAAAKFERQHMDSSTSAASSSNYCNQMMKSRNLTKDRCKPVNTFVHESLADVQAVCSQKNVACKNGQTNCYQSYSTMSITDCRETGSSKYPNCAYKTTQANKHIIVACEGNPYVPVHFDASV
T2 sequence (P13717 22-266): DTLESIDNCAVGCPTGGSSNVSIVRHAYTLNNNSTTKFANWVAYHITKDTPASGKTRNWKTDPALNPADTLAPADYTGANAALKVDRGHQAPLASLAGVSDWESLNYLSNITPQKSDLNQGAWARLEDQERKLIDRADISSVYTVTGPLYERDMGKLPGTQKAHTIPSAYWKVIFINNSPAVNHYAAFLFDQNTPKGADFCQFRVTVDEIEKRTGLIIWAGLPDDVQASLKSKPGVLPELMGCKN

SMILES | mean cleavage (%) [1] [%] | activity [3] | also measured
Cc1c(COc2cc(OCc3cccc(C#N)c3)c(CN3C[C@H](O)C[C@@H]3C(=O)O)cc2Cl)cccc1-c1ccc2c(c1)OCCO2 [BMS-1166] | 58 |  | effect on nsp15 endoribonuclease activity in gel-based assay [1]: did not inhibit the enzyme even at 100 µM; inhibition of nsp15 endoribonuclease activity in plate reader [2]: able to inhibit nsp15 endoribonuclease activity
O=c1cc(-c2ccccc2)oc2cc(O)c(O)c(O)c12 [Baicalein] | 64 | 80% | 
C=C(C)[C@@H]1CC[C@]2(C(=O)O)CC[C@]3(C)[C@H](CC[C@@H]4[C@@]5(C)CC[C@H](O)C(C)(C)[C@@H]5CC[C@]43C)[C@@H]12 [Betulinic acid] | 51 |  | 
Cl.Cl.NCCC(=O)NCCc1cnc[nH]1 [Carcinine dihydrochloride] | 76 |  | 
COc1cc(/C=C/C(=O)CC(=O)/C=C/c2ccc(O)c(OC)c2)ccc1O [Curcumin] |  | 95% and 100% | 
CN1C[C@H](C(=O)N[C@]2(C)O[C@@]3(O)[C@@H]4CCCN4C(=O)[C@H](Cc4ccccc4)N3C2=O)C[C@@H]2c3cccc4[nH]cc(c34)C[C@H]21 [Dihydroergotamine mesylate] |  | 95% and 98% | 
CN1C[C@H](C(=O)N[C@]2(C)O[C@@]3(O)[C@@H]4CCCN4C(=O)[C@H](Cc4ccccc4)N3C2=O)C=C2c3cccc4[nH]cc(c34)C[C@H]21 [Ergotamine] |  | 99% and 100% | 
O=C1c2cc([N+](=O)[O-])ccc2-n2c1nc1ccccc1c2=O [GNF-PF-3777] | 60 |  | effect on nsp15 endoribonuclease activity in gel-based assay [1]: had no effect even at 100 µM
Cn1cnc2nc(NCCO)nc(NCc3ccccc3)c21 [Iso-Olomoucine] | 60 |  | 
CC(C)(C)c1nc2c3cc[nH]c(=O)c3c3cc(F)ccc3c2[nH]1 [JAK Inhibitor I] | 65 |  | 
CCCNS(=O)(=O)Nc1ncnc(OCCOc2ncc(Br)cn2)c1-c1ccc(Br)cc1 [Macitentan] | 64 |  | 
CC#C[C@]1(O)CC[C@H]2[C@@H]3CCC4=CC(=O)CCC4=C3[C@@H](c3ccc(N(C)C)cc3)C[C@@]21C [Mifepristone] | 63 | 85% | 
O=Nc1ccc2oc(=O)ccc2c1 [NOBP] | 63 |  | 
O=C1C(SCCO)=C(SCCO)C(=O)c2ccccc21 [NSC95397] | 9 |  | effect on nuclease cleavage by benzonase [4]: did not affect nuclease cleavage; effect on nsp15 endoribonuclease activity in gel-based assay [1]: inhibited nsp15 endoribonuclease; concentration that sacrificed VERO E6 cells (VERO E6 cells): above 10 μM; Hill slope [2]: -2.5; IC50 [2]: 43 µM; inhibition of nsp15 endoribonuclease activity in plate reader [2]: able to inhibit nsp15 endoribonuclease activity; effect on nuclease cleavage by RNase A (RNase A): did not affect nuclease cleavage; SARS-CoV-2 viral growth in VERO E6 cells (SARS-CoV-2; MOI 0.5 PFU/cell, 22 h post-infection, titration at lower concentrations): viral growth was not inhibited; additive effect with remdesivir on SARS-CoV-2 infectivity (SARS-CoV-2; VERO E6 cells, NSC95397 titration in the presence of 0.5 µM remdesivir): did not observe any additive effect
CO[C@@H]1[C@@H](OC(N)=O)[C@@H](O)[C@H](Oc2ccc3c(O)c(NC(=O)c4ccc(O)c(CC=C(C)C)c4)c(=O)oc3c2C)OC1(C)C [Novobiocin] |  | 98% and 95% | 
Cc1ncc([N+](=O)[O-])n1CC(O)CCl (stereo not drawn) [Ornidazole] | 62 | 66% | 
CC(COc1ccccc1)N(CCCl)Cc1ccccc1 (stereo not drawn) [Phenoxybenzamine] | 58 | 37% | 
Oc1cc2c(cc1O)C(c1ccccc1)CNCC2 (stereo not drawn) [SKF 38393 hydrobromide] | 62 | 65% | 
C[C@H]1CC[C@@]2(OC1)O[C@H]1C[C@H]3[C@@H]4CC[C@@H]5C[C@@H](O)CC[C@]5(C)[C@H]4CC[C@]3(C)[C@H]1[C@@H]2C [Sarsasapogenin] |  | 100% and 96% | 
